Data from article PMC9586930, “Molecular insights into the distinct signaling duration for the peptide-induced PTH1R activation” (Nature Communications, 2022).
Where a chain is given by its changes, count along the chain named.

Key:
[1] = target: T1, PTH1R E180A mutant (Homo sapiens, UniProt Q03431, E180A); assay: cAMP accumulation assay (GloSensor), PTH1R E180A; type: cell-based; conditions: for ΔpEC50±SEM: relative to WT, n = 3 in triplicate; for ΔpEC50±SEM / Span±SEM: mean ± SEM; for Span±SEM: window between maximal response (Emax) and vehicle, n = 3
T1 construct: a flag-tag was fused to the N terminal of full-length PTH1R (WT or mutant); expressed in transfected cells; host or cells: HEK293T
T1 sequence (Q03431 27-593 E180A): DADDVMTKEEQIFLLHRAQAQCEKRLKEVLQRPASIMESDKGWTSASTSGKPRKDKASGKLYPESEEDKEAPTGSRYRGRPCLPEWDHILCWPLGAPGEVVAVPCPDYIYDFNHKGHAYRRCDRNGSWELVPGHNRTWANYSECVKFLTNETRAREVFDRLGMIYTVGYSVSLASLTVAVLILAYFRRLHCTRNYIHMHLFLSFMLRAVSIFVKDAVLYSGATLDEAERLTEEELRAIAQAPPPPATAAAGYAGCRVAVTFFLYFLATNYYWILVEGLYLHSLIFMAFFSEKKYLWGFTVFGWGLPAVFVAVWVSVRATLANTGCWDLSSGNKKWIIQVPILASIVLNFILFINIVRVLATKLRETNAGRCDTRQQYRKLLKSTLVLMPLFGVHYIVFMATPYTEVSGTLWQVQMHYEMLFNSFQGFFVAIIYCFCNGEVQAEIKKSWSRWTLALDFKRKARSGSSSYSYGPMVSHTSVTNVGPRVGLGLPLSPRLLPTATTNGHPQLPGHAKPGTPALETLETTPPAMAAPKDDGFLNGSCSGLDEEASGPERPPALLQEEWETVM
Experimental: (§1) Human embryonic kidney 293 T (HEK293T, ATCC: CRL-1573) cells were transfected with a plasmid mixture consisting of pcDNA3.1-flag-PTH1R (WT or mutants) and the cAMP biosensor GloSensor-22F (Promega) at a ratio of 2:1 (see Supplementary Table 7 for a list of primers used in this study). After 24 h, transfected cells were plated onto a 384-well plate, which was treated with cell adherent reagent (Applygen) in advance. After another 12 h, cells were treated with Hank’s balanced salt solution for starvation and then incubated in CO2-independent media containing 4% GloSensor cAMP Reagent (Promega) at a volume of 5 μl per well and incubated for 20 min at RT before measurements for baseline luminescence (Spark Multimode microplate reader, TECAN). Next, test ligands were added at different concentrations from 10^−6 to 10^−13 M before second measurement. Finally, data were normalized to 100% of the maximal PTH (1-34) response for WT PTH1R using a sigmoidal dose-response in GraphPad Prism.
(§2) Statistical analyses were performed on at least three individual datasets and analysed using GraphPad Prism software. Bars represent differences in the calculated agonist potency (pEC50) and maximum agonist response (Emax) for each mutant relative to the WT receptor. Data are mean± s.e.m. from at least three independent experiments, performed in triplicates. ns, not significant, ^nsP > 0.01; ^*P < 0.01; ^**P < 0.001; ^***P < 0.0001 (one-way analysis of variance (ANOVA) followed by Dunnett’s test, compared with the response of the WT). For dose-response experiments, data were normalized and analyzed using nonlinear curve fitting for the log (agonist) versus response (three parameters) curves.

[2] = target: T2, PTH1R L436A mutant (Homo sapiens, UniProt Q03431, L436A); assay: cAMP accumulation assay (GloSensor), PTH1R L436A; type: cell-based; conditions: for ΔpEC50±SEM: relative to WT, n = 3 in triplicate; for ΔpEC50±SEM / Span±SEM: mean ± SEM; for Span±SEM: window between maximal response (Emax) and vehicle, n = 3
T2 construct: a flag-tag was fused to the N terminal of full-length PTH1R (WT or mutant); expressed in transfected cells; host or cells: HEK293T
T2 sequence (Q03431 27-593 L436A): T1 sequence (Q03431 27-593 E180A) with A154E, L410A
Experimental: as §1, §2

| Substance | span (from the WT) ([1]; PTH1R E1801.32A, replicate 1) | ΔpEC50 (from the WT) ([1]; PTH1R E1801.32A, replicate 1) | span (from the WT) ([1]; PTH1R E1801.32A, replicate 2) | ΔpEC50 (from the WT) ([1]; PTH1R E1801.32A, replicate 2) | span (from the WT) ([1]; PTH1R E1801.32A, replicate 3) | ΔpEC50 (from the WT) ([1]; PTH1R E1801.32A, replicate 3) | ΔpEC50±SEM [1] | ΔpEC50 (from the WT) ([1]; replicate 1) | ΔpEC50 (from the WT) ([1]; replicate 2) | ΔpEC50 (from the WT) ([1]; replicate 3) | Span±SEM [1] | span (from the WT) ([2]; PTH1R L4367.34A, replicate 1) | ΔpEC50 (from the WT) ([2]; PTH1R L4367.34A, replicate 1) | span (from the WT) ([2]; PTH1R L4367.34A, replicate 2) | ΔpEC50 (from the WT) ([2]; PTH1R L4367.34A, replicate 2) | span (from the WT) ([2]; PTH1R L4367.34A, replicate 3) | ΔpEC50 (from the WT) ([2]; PTH1R L4367.34A, replicate 3) | ΔpEC50±SEM [2] | ΔpEC50 (from the WT) ([2]; replicate 1) | ΔpEC50 (from the WT) ([2]; replicate 2) | further results |
| --- | --- | --- | --- | --- | --- | --- | --- | --- | --- | --- | --- | --- | --- | --- | --- | --- | --- | --- | --- | --- | --- |
| H-AVAEIQLMHQRAKWIQDARRRAFLHKLIAEIHTAEI-OH [LA-PTH, long-acting PTH analog, modified PTH/PTHrP hybrid] | 111 | -0.03 | 162.5 | 0.025 | 202.3 | 0.095 | 0.03±0.04 | -0.03 | 0.025 | 0.095 | 158.60±26.43 | 237.8 | 0.088 | 171.3 | -0.137 | 194.5 | 0.085 | 0.01±0.07 | 0.088 | -0.137 | ΔpEC50 (from the WT) ([2]; replicate 3): 0.085; Span±SEM [2]: 201.20±19.49 |
| H-AVSEHQLLHDKGKSIQDLRRRELLEKLL-{Aib}-KLHTA-NH2 [ABL, Abaloparatide, an analog of PTHrP, short-acting PTH1R agonist] | 108.1 | -0.513 | 146.6 | -0.61 | 148 | -0.513 | -0.55±0.03 | -0.513 | -0.61 | -0.513 | 134.23±13.07 | 166.5 | -0.45 | 265 | -0.73 | 245.1 | -0.7 | -0.63±0.09 | -0.45 | -0.73 | ΔpEC50 (from the WT) ([2]; replicate 3): -0.7; Span±SEM [2]: 225.53±30.07 |
| H-SVSEIQLMHNLGKHLNSMERVEWLRKKLQDVHNF-OH [PTH, Teriparatide, human PTH 1-34, long-acting peptide agonist of PTH1R] | 108.2 | -0.151 | 115.5 | -0.207 | 203.5 | 0.036 | -0.11±0.07 | -0.151 | -0.207 | 0.036 | 193.57±39.96 | 270.9 | 0.137 | 204.3 | 0.015 | 186.9 | 0.016 | 0.06±0.04 | 0.137 | 0.015 | ΔpEC50 (from the WT) ([2]; replicate 3): 0.016; Span±SEM [2]: 220.70±25.60 |
